Results taken from patent publication US9855245B2, “Methods for improving lipid profiles using atrasentan” (AbbVie Inc., priority 2013, dated 2018).
“And” between values parts separate entries of the source, which are not always exact repeats. Equal values may be shown once. Marks after values point to notes of the source that are not given here.

Columns and labels:
[1] = Example 6: modeling data on edema risk based on a Phase 2A study (NCT00920764); design: species or system human
Excerpt: The graph was made by overlaying receptor occupancy data. (See also Table 20, below.)

ETAR = target: T1, ETAR (Homo sapiens, UniProt P25101); test: Example 6: receptor occupancy data overlaid on edema risk
T1 construct: Instead it rises proportionally across the ETAR receptor occupancy curve
T1 sequence (P25101 21-427): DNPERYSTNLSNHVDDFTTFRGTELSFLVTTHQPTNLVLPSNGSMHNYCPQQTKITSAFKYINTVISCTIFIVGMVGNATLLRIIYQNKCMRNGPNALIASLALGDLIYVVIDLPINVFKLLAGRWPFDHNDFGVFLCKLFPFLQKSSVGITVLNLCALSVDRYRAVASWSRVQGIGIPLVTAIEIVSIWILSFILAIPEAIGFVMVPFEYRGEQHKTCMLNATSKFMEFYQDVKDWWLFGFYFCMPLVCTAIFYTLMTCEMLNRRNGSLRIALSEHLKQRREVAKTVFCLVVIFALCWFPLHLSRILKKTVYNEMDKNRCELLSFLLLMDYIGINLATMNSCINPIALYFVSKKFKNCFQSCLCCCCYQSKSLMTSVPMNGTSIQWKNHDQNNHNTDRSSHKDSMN

[2] = test system: subjects with type 2 diabetes and nephropathy; test: Example 2: Phase 2b randomized, double-blind, placebo-controlled 12-week study conducted in Japan; settings: for Any adverse event / Any adverse event leading to discontinuation of study drug / Death / Fatal adverse event / Possibly or probably drug-related adverse event / Serious adverse event / Severe adverse event: N = 19; for Weight, LS Mean Change from Baseline (SE): Week 12; for UACR Change from Baseline LS Mean (SE) / UACR Geometric Mean Change (Percent): baseline to final on-treatment measurement
Description: The primary efficacy endpoint in this study was the change from Baseline to Week 12 in log-transformed UACR with the primary analysis conducted using MMRM with fixed effects for treatment, visit, and treatment-by-visit interaction, with baseline measurement and baseline-by-visit interaction as covariates.
All safety analyses were performed on treatment-emergent adverse events only. Treatment-emergent adverse events were defined as those that first occurred or worsened on or after the date of first dose of study drug through 30 days after the last dose of study drug.

ob-ZSF1 rats = test: Example 5: preclinical study of hypotensive synergy, mean arterial pressure; type: in vivo, rat
Excerpt: In the example, a preclinical animal model is used to evaluate whether atrasentan and an ARB cause a synergistic hypotensive effect.

`CCCCN(CCCC)C(=O)CN1C[C@H](c2ccc3c(c2)OCO3)[C@@H](C(=O)O)[C@@H]1c1ccc(OC)cc1` [Atrasentan, (2R,3R,4S)-4-(1,3-benzodioxol-5-yl)-1-[2-(dibutylamino)-2-oxoethyl]-2-(4-methoxyphenyl)pyrrolidine-3-carboxylic acid] showed a Risk of edema ([1]; Dose 0.25 mg) of 15%, a Risk of edema ([1]; Dose 0.75 mg) of 22% and a Risk of edema ([1]; Dose 1.75 mg) of 43%. For the same molecule, the “Receptor Occupancy” value (ETAR; Dose 0.25 mg) was 25%, the “Receptor Occupancy” value (ETAR; Dose 0.75 mg) was 47% and the “Receptor Occupancy” value (ETAR; Dose 1.75 mg) was 67%. For the same molecule, the Any adverse event ([2]; 0.75 mg) was 17 (89.5) N (%) of Subjects, the “Any adverse event leading to discontinuation of study drug” value ([2]; 0.75 mg) was 1 (5.3) N (%) of Subjects and the Death ([2]; 0.75 mg) was 0 N (%) of Subjects. The Fatal adverse event ([2]; 0.75 mg) was 0 N (%) of Subjects, the “Possibly or probably drug-related adverse event” value ([2]; 0.75 mg) was 7 (36.8) N (%) of Subjects and the Serious adverse event ([2]; 0.75 mg) was 3 (15.8) N (%) of Subjects. For the same molecule, the Severe adverse event ([2]; 0.75 mg) was 1 (5.3) N (%) of Subjects, the “Cholesterol, Difference (95% CI) from placebo” value ([2]; 0.75 mg/day) was −26.1 (−42.77, −9.33) mg/dL and the “Cholesterol, Final On-Treatment Visit Mean (SD)” value ([2]; 0.75 mg/day) was 173.5 (30.52) mg/dL. The “Cholesterol, LS Mean Change from Baseline (SE)” value ([2]; 0.75 mg/day) was −28.0 (5.27) mg/dL, the “HDL-C, Difference (95% CI) from placebo” value ([2]; 0.75 mg/day) was −1.0 (−6.89, 4.91) mg/dL and the “HDL-C, Final On-Treatment Visit Mean (SD)” value ([2]; 0.75 mg/day) was 48.8 (12.65) mg/dL. For the same molecule, the “HDL-C, LS Mean Change from Baseline (SE)” value ([2]; 0.75 mg/day) was −2.8 (1.86) mg/dL, the “Had ≧30% Reduction in UACR and No Edema (no moderate or severe adverse event of edema)” value ([2]; 0.75 mg/day) was 8 (42.1) Number (%) of Subjects and the “Hemoglobin, Difference (95% CI) from placebo” value ([2]; 0.75 mg/day) was −1.22 (−1.863, −0.586) g/dL. The “Hemoglobin, Final On-Treatment Visit Mean (SD)” value ([2]; 0.75 mg/day) was 11.74 (1.963) g/dL, the “LDL-C, Difference (95% CI) from placebo” value ([2]; 0.75 mg/day) was −19.4 (−33.56, −5.30) mg/dL and the “LDL-C, Final On-Treatment Visit Mean (SD)” value ([2]; 0.75 mg/day) was 94.4 (29.10) mg/dL. For the same molecule, the “LDL-C, LS Mean Change from Baseline (SE)” value ([2]; 0.75 mg/day) was −18.6 (4.45) mg/dL, the “Percentage of Subjects with ≧30% Reduction in Log-Transformed UACR from Baseline to Final Measurement” value ([2]; 0.75 mg/day) was 52.6% and the “Percentage of Subjects with ≧40% Reduction in Log-Transformed UACR from Baseline to Final Measurement” value ([2]; 0.75 mg/day) was 31.6%. The “Percentage of Subjects with ≧50% Reduction in Log-Transformed UACR from Baseline to Final Measurement” value ([2]; 0.75 mg/day) was 21.1%, the “Triglycerides, Difference (95% CI) from placebo” value ([2]; 0.75 mg/day) was −32.9 (−74.44, 8.66) mg/dL and the “Triglycerides, Final On-Treatment Visit Mean (SD)” value ([2]; 0.75 mg/day) was 148.1 (64.63) mg/dL. For the same molecule, the “Triglycerides, LS Mean Change from Baseline (SE)” value ([2]; 0.75 mg/day) was −28.8 (50.42) mg/dL, the “Weight, Difference (95% CI) from placebo” value ([2]; 0.75 mg/day) was 0.1 (−1.13, 1.36) kg and the “Weight, Final On-Treatment Visit Mean (SD)” value ([2]; 0.75 mg/day) was 69.4 (13.26) kg. The “fatigue leading to discontinuation” value ([2]; 0.75 mg/day) was 1.7%, the “geometric mean reduction in UACR, baseline to final on-treatment measurement” value ([2]; 0.75 mg/day) was 31.44% and the “incidence of peripheral edema” value ([2]; 0.75 mg/day) was 21.1%. For the same molecule, the “mean (non-ambulatory) diastolic blood pressure change from baseline to last on-treatment visit” value ([2]; 0.75 mg/day) was −5.74 mmHg, the “mean ambulatory diastolic blood pressure change from baseline to Week 10” value ([2]; 0.75 mg/day) was −6.0 mmHg and the “mean ambulatory systolic blood pressure change from baseline to Week 10” value ([2]; 0.75 mg/day) was −5.1 mmHg. The “mean duration of edema” value ([2]; 0.75 mg/day) was 38.2 days, the “peripheral edema leading to discontinuation” value ([2]; 0.75 mg/day) was 3.4% and the “subjects discontinued from the study” value ([2]; 0.75 mg/day) was 10.5%. The “subjects who discontinued study drug because of adverse events” value ([2]; 0.75 mg/day) was 5.3%, the “UACR Between-group Comparison Difference (95% CI)” value ([2]; 0.75 mg/day vs placebo) was −0.41 (−0.69, −0.13) and the “mean eGFR, difference between atrasentan and placebo” value ([2]; 0.75 mg/day, Week 10) was “statistically significant”. The “Weight, LS Mean Change from Baseline (SE)” value ([2]; 0.75 mg/day) was 0.2 (0.45) kg, the “UACR Change from Baseline LS Mean (SE)” value ([2]; 0.75 mg/day) was −0.38 (0.10) log mg/g creatinine and the “UACR Geometric Mean Change (Percent)” value ([2]; 0.75 mg/day) was −31.44%. The “mean (non-ambulatory) systolic blood pressure change from baseline to last on-treatment visit” value ([2]; 0.75 mg/day, increased) was 1.93 mmHg, the Any adverse event ([2]; 1.25 mg) was 14 (73.7) N (%) of Subjects and the “Any adverse event leading to discontinuation of study drug” value ([2]; 1.25 mg) was 5 (26.3)* N (%) of Subjects. For the same molecule, the Death ([2]; 1.25 mg) was 0 N (%) of Subjects, the Fatal adverse event ([2]; 1.25 mg) was 0 N (%) of Subjects and the “Possibly or probably drug-related adverse event” value ([2]; 1.25 mg) was 10 (52.6) N (%) of Subjects. For the same molecule, the Serious adverse event ([2]; 1.25 mg) was 2 (10.5) N (%) of Subjects, the Severe adverse event ([2]; 1.25 mg) was 1 (5.3) N (%) of Subjects and the “Cholesterol, Difference (95% CI) from placebo” value ([2]; 1.25 mg/day) was −25.0 (−41.95, −8.04) mg/dL. For the same molecule, the “Cholesterol, Final On-Treatment Visit Mean (SD)” value ([2]; 1.25 mg/day) was 169.6 (37.60) mg/dL, the “Cholesterol, LS Mean Change from Baseline (SE)” value ([2]; 1.25 mg/day) was −26.9 (5.41) mg/dL and the “HDL-C, Difference (95% CI) from placebo” value ([2]; 1.25 mg/day) was −2.3 (−8.24, 3.73) mg/dL. For the same molecule, the “HDL-C, Final On-Treatment Visit Mean (SD)” value ([2]; 1.25 mg/day) was 46.4 (12.12) mg/dL, the “HDL-C, LS Mean Change from Baseline (SE)” value ([2]; 1.25 mg/day) was −4.1 (1.91) mg/dL and the “Had ≧30% Reduction in UACR and No Edema (no moderate or severe adverse event of edema)” value ([2]; 1.25 mg/day) was 9 (52.9) Number (%) of Subjects. The “Hemoglobin, Difference (95% CI) from placebo” value ([2]; 1.25 mg/day) was −1.14 (−1.773, −0.497) g/dL, the “Hemoglobin, Final On-Treatment Visit Mean (SD)” value ([2]; 1.25 mg/day) was 11.67 (2.300) g/dL and the “LDL-C, Difference (95% CI) from placebo” value ([2]; 1.25 mg/day) was −19.7 (−34.02, −5.36) mg/dL. The “LDL-C, Final On-Treatment Visit Mean (SD)” value ([2]; 1.25 mg/day) was 92.1 (35.00) mg/dL, the “LDL-C, LS Mean Change from Baseline (SE)” value ([2]; 1.25 mg/day) was −18.9 (4.57) mg/dL and the “Percentage of Subjects with ≧30% Reduction in Log-Transformed UACR from Baseline to Final Measurement” value ([2]; 1.25 mg/day) was 64.7%. For the same molecule, the “Percentage of Subjects with ≧40% Reduction in Log-Transformed UACR from Baseline to Final Measurement” value ([2]; 1.25 mg/day) was 64.7%, the “Percentage of Subjects with ≧50% Reduction in Log-Transformed UACR from Baseline to Final Measurement” value ([2]; 1.25 mg/day) was 52.9% and the “Triglycerides, Difference (95% CI) from placebo” value ([2]; 1.25 mg/day) was −16.5 (−58.63, 25.64) mg/dL. For the same molecule, the “Triglycerides, Final On-Treatment Visit Mean (SD)” value ([2]; 1.25 mg/day) was 160.6 (73.37) mg/dL, the “Triglycerides, LS Mean Change from Baseline (SE)” value ([2]; 1.25 mg/day) was −12.4 (68.76) mg/dL and the “Weight, Difference (95% CI) from placebo” value ([2]; 1.25 mg/day) was 0.4 (−0.96, 1.68) kg. The “Weight, Final On-Treatment Visit Mean (SD)” value ([2]; 1.25 mg/day) was 74.9 (14.51) kg, the “fatigue leading to discontinuation” value ([2]; 1.25 mg/day) was 3.1% and the “geometric mean reduction in UACR, baseline to final on-treatment measurement” value ([2]; 1.25 mg/day) was 53.76%. The “incidence of peripheral edema” value ([2]; 1.25 mg/day) was 31.6%, the “mean (non-ambulatory) diastolic blood pressure change from baseline to last on-treatment visit” value ([2]; 1.25 mg/day) was −4.33 mmHg and the “mean (non-ambulatory) systolic blood pressure change from baseline to last on-treatment visit” value ([2]; 1.25 mg/day) was −2.93 mmHg. The “mean ambulatory diastolic blood pressure change from baseline to Week 10” value ([2]; 1.25 mg/day) was −6.8 mmHg, the “mean ambulatory systolic blood pressure change from baseline to Week 10” value ([2]; 1.25 mg/day) was −7.2 mmHg and the “mean duration of edema” value ([2]; 1.25 mg/day) was 54.8 days. The “peripheral edema leading to discontinuation” value ([2]; 1.25 mg/day) was 4.7%, the “subjects discontinued from the study” value ([2]; 1.25 mg/day) was 26.3% and the “subjects who discontinued study drug because of adverse events” value ([2]; 1.25 mg/day) was 26.3%. The “UACR Between-group Comparison Difference (95% CI)” value ([2]; 1.25 mg/day vs placebo) was −0.80 (−1.09, −0.52), the “Weight, LS Mean Change from Baseline (SE)” value ([2]; 1.25 mg/day) was 0.4 kg and 0.4 (0.49) kg and the “mean eGFR, difference between atrasentan and placebo” value ([2]; 1.25 mg/day, Weeks 6, 8, and 10) was “statistically significant”. The “UACR Change from Baseline LS Mean (SE)” value ([2]; 1.25 mg/day) was −0.77 (0.10) log mg/g creatinine, the “UACR Geometric Mean Change (Percent)” value ([2]; 1.25 mg/day) was −53.76% and the “mean HDL-C change” value ([2]; all treatment groups, changes not clinically meaningful) was “decreased slightly”. For the same molecule, the “cholesterol and LDL-C, differences from placebo” value ([2]; both atrasentan groups (0.75 mg, 1.25 mg)) was “statistically significant”, the “hemoglobin relative to placebo” value ([2]; both atrasentan groups, at Week 2 and throughout the study) was “Statistically significantly mean decreases” and the “decrease in MAP” value (ob-ZSF1 rats; 1.5 mg/kg/day combined with losartan (10 mg/kg/day)) was “approximately the same as the decrease in MAP when losartan was administered alone”. For the same molecule, the “mean arterial pressure (MAP)” value (ob-ZSF1 rats; alone at 1.5 mg/kg/day or 5 mg/kg/day) was “did not significantly affect mean arterial pressure”.
